Results from patent US12643867B2, “Compositions and uses thereof” (University of Virginia Patent Foundation, priority 2017, dated 2026).

Assays:
Assay type in all cases: cell-based
[1] = tested on: Bone Marrow Derived Macrophages (BMDMs), noncancerous primary cells; assay: WST-1 Cell Proliferation Assay; conditions: ritanserin highest concentration tested 50 μM; staurosporine 1 μM
H1650 cells = assay: WST-1 Cell Proliferation Assay; conditions: ritanserin, ketanserin 5-50 μM; staurosporine 1 μM
Procedure: (§1) WST-1 Cell Proliferation Assays. Tumor cells were plated in transparent tissue-culture treated 96-well plates at a density of 100,000 cells/mL (A549, H1650) or 200,000 cells/mL (H82) in a volume of 100 μL per well. Cells were treated with dimethyl sulfoxide (DMSO) vehicle or inhibitors dissolved in DMSO at the indicated concentrations (final DMSO concentration of 0.5%). Cells were allowed to grow for indicated times at 37° C. under 5% CO2. Afterwards, equal parts of WST-1 developer reagent and electron mediator solution were mixed and 10 μL of the resulting solution (‘WST-1 reagent’) were added to each well. Plates were shaken in an orbital shaker for 60 s and then returned to the incubator for two hrs. Plates were again shaken followed measurement of absorbance at 450 nm. Data were normalized to DMSO-treated wells and significance values determined with one-way ANOVA.

H82 cells = assay: WST-1 Cell Proliferation Assay; conditions: ritanserin, ketanserin 5-50 μM; staurosporine 1 μM
Procedure: as §1

A549 cells = assay: WST-1 Cell Proliferation Assay; conditions: ritanserin, ketanserin 5-50 μM; staurosporine 1 μM
Procedure: as §1

human PKCa (hPKCa) = biological target: T1, human PKCa (hPKCa) (Homo sapiens, UniProt P17252); assay: JWB003 labeling of C1 domain protein kinases; conditions: transfected HEK293T cells
T1 construct: expressed in transfected cells; host or cells: HEK293T
Procedure: (§2) • 1. HEK293T cells were harvested in cold PBS. • a. Cells were transferred to Eppendorf tube. • 2. Cells were lysed via tip sonicator. • 3. Cells were fractionated into membrane and soluble fraction. • a. 100,000×G for 45 minutes at 4 degree. • b. Supernatant was separated from cell pellet. • 4. Dilute proteomes to 1 mg/mL in PBS and aliquot appropriate reaction volume (49 μL for probe only; 48 μL for competition+probe) • 5. Cells were treated with 50× inhibitor. • a. Incubated for 1Hr at 37 degree. • 6. Cells were treated with 50× Probe (JWB003). • a. Incubated for 1Hr at 37 degree. • 7. Add 6 μL of master mix to each alkyne probe-labeled sample. • a. 1 μL of 1.25 mM Rh-N3 • b. 1 μL of fresh 50 mM TCEP • c. 3 μL of 1.7 mM TBTA stock • d. 1 μL of 50 mM CuSO4 • 8. Vortex samples. • 9. Incubate at room temperature for 1 hr • 10. Quench with 17 μL of 4×SDS-PAGE loading buffer+βME and vortex tubes. • 11. Analyze 30 μL samples by SDS-PAGE immediately. [B] Labeling HEK293T Cells to Determine Target Proteins of JWB003 in Live Cells (In Situ) • 1. Complete media was removed from HEK293T cells and replaced with serum free media containing JWB003 at the appropriate final concentration • a. Cells were placed in incubator for appropriate time at 37 degree 5% CO2 • 2. Cells were washed • a. 2× warm PBS • b. 2× cold PBS • c. Harvest cells in cold PBS • 3. Cells were transferred to Eppendorf tube • 4. […]

recombinant hDGKa = biological target: T2, recombinant hDGKa (Homo sapiens, UniProt P23743); assay: JWB003 labeling in live cells (in situ); conditions: 25 μM; transfected HEK293T cells
T2 construct: expressed in transfected cells; host or cells: HEK293T
Procedure: as §2

[2] = tested on: recombinant DGK isoforms (total of 10); assay: JWB003 labeling in live cells (in situ); conditions: live HEK293T cells
Procedure: as §2

T2 sequence (P23743 whole entry): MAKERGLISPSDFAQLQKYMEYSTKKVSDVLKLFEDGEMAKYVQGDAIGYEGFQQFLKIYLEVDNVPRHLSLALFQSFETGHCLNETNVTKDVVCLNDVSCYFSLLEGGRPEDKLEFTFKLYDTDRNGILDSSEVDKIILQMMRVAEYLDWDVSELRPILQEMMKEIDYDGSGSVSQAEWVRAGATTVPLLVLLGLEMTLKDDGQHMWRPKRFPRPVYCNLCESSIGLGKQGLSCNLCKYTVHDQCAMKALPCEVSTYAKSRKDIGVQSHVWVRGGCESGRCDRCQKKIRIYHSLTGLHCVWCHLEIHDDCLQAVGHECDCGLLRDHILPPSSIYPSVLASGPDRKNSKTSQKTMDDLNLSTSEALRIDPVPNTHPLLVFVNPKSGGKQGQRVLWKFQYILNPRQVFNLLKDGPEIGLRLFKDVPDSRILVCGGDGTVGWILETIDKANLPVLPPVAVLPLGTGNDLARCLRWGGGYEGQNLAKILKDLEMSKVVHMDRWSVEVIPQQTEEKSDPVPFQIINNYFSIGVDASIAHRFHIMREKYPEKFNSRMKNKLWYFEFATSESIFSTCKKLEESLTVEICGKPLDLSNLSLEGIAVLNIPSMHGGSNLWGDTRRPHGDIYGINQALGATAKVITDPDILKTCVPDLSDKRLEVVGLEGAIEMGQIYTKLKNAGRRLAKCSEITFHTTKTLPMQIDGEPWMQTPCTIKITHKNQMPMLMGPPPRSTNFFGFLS

| Compound | cell killing of noncancerous primary cells (WST-1), words [1] | cell viability (WST-1), words (H1650 cells) | cell viability (WST-1), words (H82 cells) | cell viability (WST-1), words (A549 cells) | labeling of hPKCa (human PKCa (hPKCa)) | time at which probe labeling of hDGKa saturates (recombinant hDGKa) [min] | labeling of recombinant DGK isoforms [2] |
| --- | --- | --- | --- | --- | --- | --- | --- |
| CN[C@@H]1C[C@H]2O[C@@](C)([C@@H]1OC)n1c3ccccc3c3c4c(c5c6ccccc6n2c5c31)C(=O)NC4 [Staurosporine] | general cytotoxicity across all cells tested | general cytotoxicity across all cells tested | general cytotoxicity across all cells tested | general cytotoxicity across all cells tested | – | – | – |
| C#CCCC(=O)NCCN1CCN(C/C=C/C(=O)N2CCC(=C(c3ccc(F)cc3)c3ccc(F)cc3)CC2)CC1 [JWB003] | – | – | – | – | labeling of hPKCa in the membrane but not soluble fraction | 60 | effective labeling of all ten proteins in live cells |
